Test results published in EP2561886A1, “Peptide adjuvant for improved peripheral analgesia” (Forschungsverbund Berlin e.V., priority 2011, dated 2013).
No end group written: not given here. TAMRA = 5(6)-carboxytetramethylrhodamine

Columns and labels:
Caco-2 cell monolayers [1] = experiment: Transcellular electrical resistance (TER) of Caco-2 cell monolayers; format: cell-based, human; conditions: for transcellular electrical resistance (TER): 300 µM
Protocol: (§1) Measurements of Transcellular Electrical Resistance (TER) and Paracellular Permeability. 24-well transwell filters (Millicell-CM, Millipore, Eschborn, Germany) were coated with rat tail collagen (250 µg/cm^2) for 16 h, washed twice with PBS (phosphate buffer saline) and preincubated with DMEM (600 µl basolateral, 400 µl apical for Endohm electrodes and 400 µl basolateral, 500 µl apical for the cellZscope system (nanoAnalytics GmbH, Münster, Germany)) for 24 h. Caco-2 cells (200.000 cell/cm^2) were seeded into the filters and grown to high-resistance TER (> 500 Ω/cm^2) for approx. 4 days. Medium was changed every day.
The experiments were performed as followed: After reaching high and stable TER values, cell monolayers were treated with peptides as described above. Control cells were incubated with respective medium. The TER values were measured at distinct time intervals. For re-arrangement of the monolayer, C1C2 was removed from the Caco-2 cells by exchange of the medium.

[2] = test system: perineurium of the sciatic nerve; experiment: Mechanical nociceptive thresholds (paw pressure threshold, modified Randall-Selitto test) after perineurial injection at the sciatic nerve; format: in vivo, Male Wistar rats; conditions: for Mechanical nociceptive thresholds (PPT) after injection of TTX: 10 µM TTX perineurially after peptide pretreatment (C1C2: 24-48 h); for mechanical nociceptive thresholds before the injection of DAMGO (Baseline) / mechanical nociceptive thresholds in contralateral paws: 400 µM peptide perineurially; for mechanical nociceptive thresholds in contralateral paws: contralateral paw
Text: Animals. Animal protocols were approved by the animal care committee of the Regierung von Unterfranken and are in accordance with the International Association for the Study of Pain (44). Male Wistar rats weighing 180-220 g were used.
(§2) Perineurial Injection at the Sciatic Nerve. Nociceptive inputs from the rat hind paw travels through the sciatic nerve. Under brief isoflurane anesthesia, the right sciatic nerve was located using a 22 G needle connected to a nerve stimulator (Stimuplex Dig RC; Braun, Melsungen, Germany) as previously described (45). The needle was advanced to the point of maximal stimulation at 0.2 mA. 300 µl of the indicated substances was injected. If more than one injection within half hour was necessary the total injected volume was maintained at 300 µl.
(§3) Peptides were dissolved in 0.9% NaCl and injected perineurially in the indicated concentrations. Measurements (nociceptive thresholds, tissue harvest for Western blot or immunohistochemistry) were undertaken 24-96 h after peptide injection.
Measurements of Nociceptive Thresholds. Mechanical thresholds were determined using the paw pressure algesiometer (modified Randall-Selitto test; Ugo Basile, Comerio, Italy) as described before (47). The pressure required to elicit paw withdrawal, the paw pressure threshold (PPT), was determined in blinded experiments. Averages were calculated from three measurements each. An increase in PPT was interpreted as antinociception (analgesia), a decrease in PPT was interpreted as hyperalgesia (pain). Measurements were taken 10-60 min after injection of 100 µl containing 30 µg DAMGO or 10 µM TTX. The optimal doses of DAMGO or TTX have been evaluated in pilot studies (data not shown), but are similar to doses used for intraplantar injection in rats.

Caco-2 cell monolayers [3] = experiment: Paracellular permeability (permeation coefficient of FD-10 and Lucifer Yellow) of Caco-2 cell monolayers; format: cell-based, human; parameters: key to Paracellular Permeability: ↑ : increase; -: no change; conditions: for permeation of FD-10: FD-10 (10 kDa); for permeation of FD-10 / permeation of Lucifer Yellow: 48 h after peptide administration; for permeation of Lucifer Yellow: Lucifer Yellow (0.4 kDa); for Paracellular Permeability: summary table of claudin-derived peptides
Protocol: as §1
The permeation studies were performed by addition of 25 µg/ml Lucifer Yellow (0.4 kDa) or FD-10 (fluorescein isothiocyanate-dextran, 10 kDa) in HBSS (Hank's balanced salt solution buffer) on the apical side and HBSS alone on the basolateral side. After 10 min, 100 µl probes were removed from the basolateral side and the fluorescence units were measured by a fluorescence plate reader (Tecan, Crailsheim, Germany) to calculate the PCoeff (permeation coefficient, cm/s). The obtained data were analyzed with GraphPad Prism 3.0 program (GraphPad Software, San Diego, USA).

claudin-1 [4] = biological target: T1, claudin-1 (Rattus norvegicus, UniProt P56745); experiment: Immunohistochemistry of claudin-1 in the sciatic nerve after perineurial injection; format: in vivo; conditions: 400 µM perineurial injection, after 24 h
T1 construct: from tissue; host or cells: sciatic nerve (perineurium) of male Wistar rats
T1 sequence (P56745 1-211): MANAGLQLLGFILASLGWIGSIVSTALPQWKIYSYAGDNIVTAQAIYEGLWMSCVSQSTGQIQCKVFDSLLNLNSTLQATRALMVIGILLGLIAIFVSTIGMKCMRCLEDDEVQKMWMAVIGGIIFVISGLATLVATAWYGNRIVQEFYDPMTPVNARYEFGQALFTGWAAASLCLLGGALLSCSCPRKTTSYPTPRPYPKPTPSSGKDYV
Protocol: as §2, §3
The sciatic nerve was embedded in tissue-Tek compound (O.C.T., Miles Inc. Elkhart, Indiana) for claudin-1 staining. Sections (7-10 µm) were mounted onto gelatin-coated slides. Sections were fixed with acetone for 10 min at 4°C, washed in 0.01 M PBS (pH 7.4) for 10 min, incubated for 120 min in PBS containing 1% Triton X-100, washed in 0.01 M PBS and incubated for 30 min in 3% bovine serum albumin plus 1% normal goat serum blocking solution to prevent nonspecific binding. […] Finally, the sections were mounted and analyzed using the laser scanning microscope (Zeiss, Jena, Germany).

claudin-1 [5] = biological target: T1, claudin-1; experiment: Western blot of claudin-1 in sciatic nerve fractions after perineurial injection; format: in vivo; conditions: 400 µM perineurial injection
Protocol: as §2, §3
Western Blot Analysis. […] Extracted protein was diluted in lysis buffer and quantified using the BCA protein assay reagent (Pierce, Rockford, IL, USA) and a plate reader (Tecan, Grödig, Austria). […] Proteins were detected using specific antibodies against claudin-1 (Invitrogen, Carlsbad, CA, USA) and as protein loading control […]-actin (Sigma Aldrich, Taufkirchen, Germany), respectively. Visualization was done by luminescence.

claudin-1 [6] = biological target: T2, claudin-1 (Homo sapiens, UniProt O95832); experiment: Immunocytochemistry of claudin-1 and ZO-1 in Caco-2 cell monolayers; format: cell-based; conditions: 300 µM, 24 and 48 h after treatment
T2 construct: Caco-2 cells express several TJ proteins; endogenous in cells; host or cells: Caco-2
T2 sequence (O95832 1-211): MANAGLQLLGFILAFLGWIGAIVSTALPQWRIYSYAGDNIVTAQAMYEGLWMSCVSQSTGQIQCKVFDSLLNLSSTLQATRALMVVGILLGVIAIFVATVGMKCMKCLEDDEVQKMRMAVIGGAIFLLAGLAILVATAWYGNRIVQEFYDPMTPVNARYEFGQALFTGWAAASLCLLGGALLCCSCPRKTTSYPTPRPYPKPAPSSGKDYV
Protocol: Immunocytochemistry. Immunocytochemistry was performed as previously described (46). Caco-2 cells were transferred into 6-well plates containing collagen-coated cover-slips and grown to 60-70% confluence before use. Cells were treated with C1C2 (300 µM) as well as the control treated without peptide for 24 and 48 h, respectively. The medium was changed, followed by incubation with rabbit anti-claudin-1 and rabbit anti-ZO-1 (zonula occludens protein) antibodies and incubated with Alexa-Fluor 488-conjugated goat anti-rabbit secondary antibody. Cells were analyzed with the confocal microscope.

[7] = test system: HEK-293 cells stably transfected with claudin-1-YFP; experiment: Confocal microscopy of peptide internalization in claudin-1-YFP expressing HEK-293 cells; format: cell-based, human; conditions: 40 µM
Protocol: (§4) Cell Culture. Caco-2 (colorectal adenocarcinoma) cells (41) were grown in a humidified atmosphere at 37 °C and 10% CO2, whereas HEK-293 (human embryonic kidney) cells (42) and HEK-293 cells stably transfected with claudin-1-YFP (yellow fluorescence protein) (43) were grown at 37 °C and 5% CO2. Cells were cultured in DMEM (Dulbecco's modified Eagle's medium) containing 10% fetal calf serum, 100 units/ml penicillin, 100 µg/ml streptomycin, and 1% L-analyl-L-glutamine.
(§5) Confocal Microscopy. HEK-293 cells and stably claudin-1-YFP expressing HEK-293 cells were transferred into 6-well plates containing collagen-coated cover-slips as described above and grown to 60-70% confluence. Then, cells were treated with the TAMRA-labeled peptide (40 µM) for 15 min, 35 min, and 24 h, respectively. Pluronic ®F-68 (0.0012%) was added as solution enhancer. After removing of the peptide, cells were analyzed with the LSM 510 Meta confocal microscope (Zeiss, Jena, Germany).

wild type HEK-293 cells = experiment: Confocal microscopy of peptide internalization in wild type HEK-293 cells; format: cell-based, human; conditions: 40 µM, 24 h
Protocol: as §4, §5

ESATHSTGITQSDIYSTLLGLPADIQAAQ-NH2 [Peptide C2C2, peptide from the C-terminal part of the ECL1 of rat claudin-2, same modifications as C1C2, applied as negative control, reference compound]
transcellular electrical resistance (TER) (Caco-2 cell monolayers [1]; bilateral treatment, 24 h): unaffected | Mechanical nociceptive thresholds (PPT) after injection of TTX [2]: unchanged | Mechanical nociceptive thresholds (paw pressure threshold, PPT) after injection of DAMGO ([2]; DAMGO perisciatic 0-4 d after perineurial peptide (400 µM)): unchanged | permeation of FD-10 (Caco-2 cell monolayers [3]): did not influence | permeation of Lucifer Yellow (Caco-2 cell monolayers [3]): did not influence

SSVSQSTGQIQSKVFDSLLNLNSTLQATR-NH2 [Peptide C1C2, 29 amino acid peptide derived from the C-terminal part of the ECL1 of rat claudin-1, Cys54/Cys64 substituted by serines, C-terminally amidated]
transcellular electrical resistance (TER) (Caco-2 cell monolayers [1]; apical treatment): significant reduction of the TER, but less efficient then the bilateral treatment | TER (Caco-2 cell monolayers [1]; bilateral application of 100, 200, and 300 µM): Time- and concentration-dependent reduction | transcellular electrical resistance (TER) (Caco-2 cell monolayers [1]; bilateral treatment, 24 h): significant reduction | recovery of the cell monolayer (barrier integrity) after removing peptide (Caco-2 cell monolayers [1]; peptide removed at 48 h, read 24 h later, i.e. after 72 h): Complete recovery | claudin-1 immunoreactivity in the perineurium (claudin-1 [4]): decreased | claudin-1 protein expression in the membrane (claudin-1 [5]; 24 h and 48 h, membrane fraction): decreased | claudin-1 protein expression in the cytosol (claudin-1 [5]; cytosol fraction): No change | Mechanical nociceptive thresholds (PPT) after injection of TTX [2]: enhanced the effect of TTX | mechanical nociceptive thresholds before the injection of DAMGO (Baseline) ([2]; 0 h): 77.67 ± 1.8 g | mechanical nociceptive thresholds before the injection of DAMGO (Baseline) ([2]; 24 h): 74.67 ± 3.00 g | mechanical nociceptive thresholds before the injection of DAMGO (Baseline) ([2]; 48 h): 68.0 ± 2.02 g | mechanical nociceptive thresholds before the injection of DAMGO (Baseline) ([2]; 72 h): 69.00 ± 1.861 g | mechanical nociceptive thresholds before the injection of DAMGO (Baseline) ([2]; 96 h): 73.3 ± 2.87 g | mechanical nociceptive thresholds in contralateral paws ([2]; 0 h): 77.33 ± 1.3 g | mechanical nociceptive thresholds in contralateral paws ([2]; 24 h): 63.33 ± 2.36 g | mechanical nociceptive thresholds in contralateral paws ([2]; 48 h): 67.67 ± 2.03 g | mechanical nociceptive thresholds in contralateral paws ([2]; 72 h): 65.0 ± 1.25 g | mechanical nociceptive thresholds in contralateral paws ([2]; 96 h): 67.67 ± 2.09 g | mechanical nociceptive thresholds (PPT) after DAMGO ([2]; 24 h after perineurial 100 µM peptide, 10 min after 30 µg DAMGO): increase | PPT after DAMGO ([2]; 48 h after perineurial 400 µM peptide, 10 min after 30 µg DAMGO): Significant increases | permeation of FD-10 (Caco-2 cell monolayers [3]): increased | permeation of Lucifer Yellow (Caco-2 cell monolayers [3]): increased | Paracellular Permeability (Caco-2 cell monolayers [3]): ↑ | membrane-localized claudin-1 (claudin-1 [6]): clear decrease

TAMRA-SSVSQSTGQIQSKVFDSLLNLNSTLQATR-NH2 ({TAMRA}-SSVSQSTGQIQSKVFDSLLNLNSTLQATR-NH2) [TAMRA-C1C2, C1C2 N-terminally labeled with TAMRA (5(6)-carboxytetramethylrhodamine)]
intracellular co-localization with claudin-1-YFP [7]: mainly co-localized | membrane-localized claudin-1-YFP ([7]; 24 h after treatment): decrease | internalization ([7]; 15 min, 35 min, 24 h): internalized | Paracellular Permeability (Caco-2 cell monolayers [3]): ↑ | internalization (wild type HEK-293 cells): weak unspecific internalization
